Tests used:
cIAP1XBIR3 = molecular target: T1, cIAP1XBIR3 (Homo sapiens, UniProt Q13490, C308S/R332G/S292A); experiment: Fluorescence polarization peptide binding assay, cIAP1XBIR3; details: 0.2 μM cIAP1XBIR3, 5 nM AVP-diPhe-FAM probe; for Ki: Ki determined from IC50
T1 construct: made in house
Description: (§1) Similar cIAP1-BIR3/XIAP-BIR3 and cIAP2-BIR3/XIAP-BIR3 chimeric proteins, cIAP1XBIR3 and cIAP2XBIR3, respectively, were engineered, expressed, and purified in a similar fashion to MLXBIR3SG. As with MLXBIR3SG, the amino acid sequences of these BIR domains retain the native cIAP peptide-binding sites.
(§2) Polarization experiments were performed on an Analyst HT 96-384 (Molecular Devices Corp.) according to the procedure of Keating, S. M., Marsters, J, Beresini, M., Ladner, C., Zioncheck, K., Clark, K., Arellano, F., and Bodary, S. (2000) in Proceedings of SPIE: In Vitro Diagnostic Instrumentation (Cohn, G. E., Ed.) pp 128-137, Bellingham, Wash. Initial polarization experiments were performed in order to determine dissociation constants (Kd) between IAP protein BIR domains and fluorescent probes. Samples for fluorescence polarization affinity measurements were prepared by addition of serial dilutions of MLXBIR3SG, XIAP-BIR3, cIAP1XBIR3, or cIAP2XBIR3 in polarization buffer (50 mM Tris [pH 7.2], 120 mM NaCl, 1% bovine globulins, 5 mM DTT and 0.05% octylglucoside) to 5 nM 5-carboxyflourescein (5-FAM)-conjugated AVP-diphenylalanine-AKK (AVP-diPhe-FAM). The resulting reactions were incubated for 30 minutes at room temperature in 384-well black HE96 plates (Molecular Devices Corp.; Sunnyvale, Calif.) and fluorescence values were measured using standard filters for the fluorescein fluorophore (λex=485 nm, λem=530 nm). Fluorescence polarization values were plotted as a function of the protein concentration and the 50% effective concentration (EC50) values were obtained by fitting the data to a four-parameter equation using KaleidaGraph software (Synergy Software; Reading, Pa.). The apparent Kd values were determined from the EC50 values.
(§3) Inhibition constants (Ki) for the antagonists were determined by addition of 0.06 μM MLXBIR3SG, 0.5 μM XIAP-BIR3, 0.2 μM cIAP1XBIR3 or 0.4 μM cIAP2XBIR3 to wells containing 1:3 serial dilutions of the antagonists, and 5 nM AVP-diPhe-FAM probe in the polarization buffer. After a 10 to 30-minute incubation period, the fluorescence value of each sample was measured. Fluorescence polarization values were plotted as a function of the antagonist concentration, and the 50% inhibitory concentration (IC50) values were determined by fitting the data to a four-parameter equation using KaleidaGraph software. The Ki values for the antagonists were determined from the IC50 values (Keating et al. 2000).

XIAP-BIR3 = molecular target: T2, XIAP-BIR3 (Homo sapiens, UniProt P98170); experiment: Fluorescence polarization peptide binding assay, XIAP-BIR3; details: 0.5 μM XIAP-BIR3, 5 nM AVP-diPhe-FAM probe; for Ki: Ki determined from IC50, read-out: XIAPBIR3 Ki; for IC50: read-out: XIAPBIR3 IC50
T2 construct: serial dilutions of MLXBIR3SG, XIAP-BIR3, cIAP1XBIR3, or cIAP2XBIR3
Description: as §2, §3

cIAP2XBIR3 = molecular target: T3, cIAP2XBIR3 (Homo sapiens, UniProt Q13489, C294S/R318G/S278A); experiment: Fluorescence polarization peptide binding assay, cIAP2XBIR3; details: 0.4 μM cIAP2XBIR3, 5 nM AVP-diPhe-FAM probe
T3 construct: made in house
Description: as §1
Polarization experiments were performed on an Analyst HT 96-384 (Molecular Devices Corp.) according to the procedure of Keating, S. M., Marsters, J, Beresini, M., Ladner, C., Zioncheck, K., Clark, K., Arellano, F., and Bodary, S. (2000) in Proceedings of SPIE: In Vitro Diagnostic Instrumentation (Cohn, G. E., Ed.) pp 128-137, Bellingham, Wash. Initial polarization experiments were performed in order to determine dissociation constants (Kd) between IAP protein BIR domains and fluorescent probes. […] The resulting reactions were incubated for 30 minutes at room temperature in 384-well black HE96 plates (Molecular Devices Corp.; Sunnyvale, Calif.) and fluorescence values were measured using standard filters for the fluorescein fluorophore (λex=485 nm, λem=530 nm). […] The apparent Kd values were determined from the EC50 values. […]

MLXBIR3SG = molecular target: T4, MLXBIR3SG (Homo sapiens, UniProt Q96CA5, S150G); experiment: Fluorescence polarization peptide binding assay, MLXBIR3SG; details: 0.06 μM MLXBIR3SG, 5 nM AVP-diPhe-FAM probe; for Ki: Ki determined from IC50
T4 sequence (Q96CA5 with tags, fused parts or gaps S150G): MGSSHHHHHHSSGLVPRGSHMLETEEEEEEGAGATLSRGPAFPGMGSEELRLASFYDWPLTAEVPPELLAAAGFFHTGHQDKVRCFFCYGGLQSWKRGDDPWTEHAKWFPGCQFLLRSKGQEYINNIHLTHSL
Description: In the following experiments was used a chimeric BIR domain referred to as MLXBIR3SG in which 11 of 110 residues correspond to those found in XIAP-BIR3, while the remainder correspond to ML-IAP-BIR. […] The improved caspase-9 inhibition of the chimeric BIR domain MLXBIR3SG has been correlated with increased inhibition of doxorubicin-induced apoptosis when transfected into MCF7 cells.
as §2, §3

T2 sequence (P98170 241-356 limits assumed): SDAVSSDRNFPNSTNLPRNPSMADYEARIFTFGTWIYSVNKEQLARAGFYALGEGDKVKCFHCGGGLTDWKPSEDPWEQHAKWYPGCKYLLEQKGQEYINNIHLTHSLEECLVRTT
T1 sequence (Q13490 with tags, fused parts or gaps S292A/C308S/R332G): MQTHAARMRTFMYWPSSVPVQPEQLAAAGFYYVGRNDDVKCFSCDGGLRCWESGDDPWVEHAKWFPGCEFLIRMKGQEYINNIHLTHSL
T3 sequence (Q13489 with tags, fused parts or gaps S278A/C294S/R318G): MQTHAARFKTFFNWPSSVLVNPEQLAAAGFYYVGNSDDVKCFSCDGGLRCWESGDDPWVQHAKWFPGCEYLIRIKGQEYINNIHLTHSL

| Structure (SMILES) | IC50 (cIAP1XBIR3) [nM] | Ki (cIAP1XBIR3) [nM] | Ki (XIAP-BIR3) [nM] | IC50 (XIAP-BIR3) [nM] | IC50 (cIAP2XBIR3) [nM] | Ki (cIAP2XBIR3; Ki determined from IC50) [nM] | IC50 (MLXBIR3SG) [nM] | Ki (MLXBIR3SG) [nM] |
| --- | --- | --- | --- | --- | --- | --- | --- | --- |
| CN[C@@H](C)C(=O)N[C@H](C(=O)N1CCC[C@H]1c1cc2ccnc(-c3ccccc3)c2[nH]1)C1CCOCC1 [compound 1] | 461 | 71.3 | 90.5 | 508 | 502 | 109 | 158 | 36 |
| CN[C@@H](C)C(=O)N[C@H](C(=O)N1CCC[C@H]1c1cc2ncnc(-c3ccccc3)c2[nH]1)C1CCCCC1 [compound 3] |  |  | 79.2 | 445 |  |  | 131 | 29.8 |
| CN[C@@H](C)C(=O)N[C@H](C(=O)N1CCC[C@H]1c1cc2ncnc(-c3ccccc3)c2[nH]1)C1CCOCC1 [compound 4] |  |  | 76.9 | 434 |  |  | 156 | 35.6 |
| CN[C@@H](C)C(=O)N[C@H](C(=O)N1CCC[C@H]1c1cc2nc(C)nc(-c3ccccc3)c2[nH]1)C1CCCCC1 [compound 5] |  |  | 91.5 | 514 |  |  | 139 | 31.7 |
| CN[C@@H](C)C(=O)N[C@H](C(=O)N1CCC[C@H]1c1cc2nc(C)nc(-c3ccccc3)c2[nH]1)C1CCOCC1 [compound 6] |  |  | 201 | 1130 |  |  | 359 | 81.9 |
| CN[C@@H](C)C(=O)N[C@H](C(=O)N1CCC[C@H]1c1cc2ccnc(-c3ccc(F)cc3)c2[nH]1)C1CCOCC1 [compound 7] |  |  | 85.6 | 481 |  |  | 113 | 25.7 |
| CN[C@@H](C)C(=O)N[C@H](C(=O)N1CCC[C@H]1c1cc2nc(C)nc(-c3ccc(F)cc3)c2[nH]1)C1CCOCC1 [compound 8] |  |  | 89 | 500 |  |  | 108 | 24.6 |
| CN[C@@H](C)C(=O)N[C@H](C(=O)N1CCC[C@H]1c1cc2nc(C)nc(-c3ccc(F)cc3)c2[nH]1)C1CCCCC1 [compound 9] |  |  | 64.9 | 364 |  |  | 62 | 14.1 |
| CN[C@@H](C)C(=O)N[C@H](C(=O)N1CCC[C@H]1c1cc2ccnc(-c3ccc(F)cc3)c2[nH]1)C1CCCCC1 [compound 10] |  |  | 102 | 574 |  |  | 99.3 | 22.6 |
| CN[C@@H](C)C(=O)N[C@H](C(=O)N1CCC[C@H]1c1cc2ccnc(-c3ccccc3Cl)c2[nH]1)C1CCOCC1 [compound 11] | 194 | 30.1 | 121 | 682 |  |  | 648 | 148 |
| CN[C@@H](C)C(=O)N[C@H](C(=O)N1CCC[C@H]1c1cc2ccnc(-c3ccccc3)c2[nH]1)c1ccccc1 [compound 12] |  |  | 64.4 |  |  |  | 144 | 32.9 |
| CN[C@@H](C)C(=O)N[C@H](C(=O)N1CCC[C@H]1c1cc2ccnc(-c3ccccc3)c2[nH]1)C1CCCCC1 [compound 13] |  |  | 63.8 |  |  |  | 91 | 20.7 |

Reference: US20110218211A1, “AZAINDOLE INHIBITORS OF IAP” (Genentech, Inc., priority 2008, published 2011)
